Results as given in US11560366B2, “Bicyclo[1.1.1]pentane inhibitors of dual leucine zipper (DLK) kinase for the treatment of disease” (Board of Regents, The University of Texas System, priority 2019, dated 2023).

Experiments:
[1] = Metabolic stability in liver microsome preparations, overall comparison; assay type: in vitro ADME; settings: relative to comparator compounds 13 or 14/14b (WO2018207072)
Description: (§1) The test compound was incubated with liver microsomes (0.5 mg/mL) from CD-1 mouse, Sprague Dawley rat, Beagle dog, Cynomolgus monkey, and human in the presence of NADPH for 45 minutes at 37° C. The % parent remaining over time was determined by LC-MS/MS, using peak area ratios. Half-life (t1/2) was calculated using the following equation: t1/2=ln2/k, where k is the rate constant of parent decay over time (slope of the plot of log[% parent remaining] versus time).

[2] = Mouse pharmacokinetics, single dose; assay type: in vivo, male C57BL/6 mice; settings: for Kp / unbound brain-to-plasma ratio (Kp,uu): male, C57BL/6, mouse, brain and plasma, po, 10 mg/kg, based on AUC; for Kp / unbound brain-to-plasma ratio (Kp,uu) / clearance / half-life / Vd / AUC(0-t) / Cmax / bioavailability: male C57BL/6 mice; for Kp / unbound brain-to-plasma ratio (Kp,uu) / AUC(0-t) / Cmax / bioavailability: oral dose 10 mg/kg; for Kp: read-out: Brain/Plasma Ratio; for unbound brain-to-plasma ratio (Kp,uu): read-out: Free Brain/Plasma Ratio; for clearance / half-life / Vd / AUC(0-t) / Cmax / bioavailability: mouse; for clearance / half-life / Vd: in vivo, IV dose 0.3 mg/kg (1a, 4b, 13, 14b, 16; IV dose of 8a, 9b not stated); for Vd: read-out: Vss; for AUC(0-t) / Cmax / bioavailability: plasma; for clearance in mice, comparison in words / half-life in mice, comparison in words: relative to comparator compounds 13 or 14b
[3] = target: human DLK (Homo sapiens (Human), UniProt Q12852); assay: DLK Kd determination (KINOMEscan KdELECT, DiscoveRx); assay type: binding; settings: read-out: Kd
Description: The DLK dissociation constants (Kd) have been determined in the KINOMEscan KdELECT Service at DiscoveRx.
A fusion protein of full length of human DLK (amino acids 1-859) and the DNA binding domain of NFkB was expressed in transiently transfected HEK293 cells. From these HEK 293 cells, extracts were prepared in M-PER extraction buffer (Pierce) in the presence of Protease Inhibitor Cocktail Complete (Roche) and Phosphatase Inhibitor Cocktail Set II (Merck) per manufacturers' instructions. The DLK fusion protein was labeled with a chimeric double-stranded DNA tag containing the NFkB binding site (5′-[sequence]-3′, SEQ ID NO:1) fused to an amplicon for qPCR readout, which was added directly to the expression extract (the final concentration of DNA-tag in the binding reaction is 0.1 nM).
The liganded beads were blocked with excess biotin and washed with blocking buffer (SeaBlock (Pierce), 1% BSA, 0.05% Tween 20, 1 mM DTT) to remove unbound ligand and to reduce nonspecific binding.
Extracts were used directly in binding assays without any enzyme purification steps at a >10,000-fold overall stock dilution (final DNA-tagged enzyme concentration <0.1 nM). Extracts were loaded with DNA-tag and diluted into the binding reaction in a two step process. First extracts were diluted 1:100 in 1× binding buffer (PBS/0.05% Tween 20/10 mM DTT/0.1% BSA/2 μg/ml sonicated salmon sperm DNA) containing 10 nM DNA-tag. This dilution was allowed to equilibrate at room temperature for 15 minutes and then subsequently diluted 1:100 in 1× binding buffer. Test compounds were prepared as 111× stocks in 100% DMSO. Kds were determined using an 11-point 3-fold compound dilution series with three DMSO control points. […] The compounds were then diluted directly into the assays such that the final concentration of DMSO was 0.9%. All reactions performed in polypropylene 384-well plates. Each was a final volume of 0.02 mL. Assays were incubated with shaking for 1 hour at room temperature. Then the beads were pelleted and washed with wash buffer (1×PBS, 0.05% Tween 20) to remove displaced kinase and test compound. […] The kinase concentration in the eluates was measured by qPCR. qPCR reactions were assembled by adding 2.5 μL of kinase eluate to 7.5 μL of qPCR master mix containing 0.15 μM amplicon primers and 0.15 μM amplicon probe.
Test compounds were prepared as 111× stocks in 100% DMSO. Kds were determined using an 11-point 3-fold compound dilution series with three DMSO control points. […] The compounds were then diluted directly into the assays such that the final concentration of DMSO was 0.9%. The Kds were determined using a compound top concentration of 30,000 nM. Kd measurements were performed in duplicate.
Binding constants (Kds) were calculated with a standard dose-response curve using the Hill equation:
The Hill Slope was set to −1.

[4] = Metabolic stability in liver microsomes, monkey; assay type: in vitro ADME, Cynomolgus monkey; settings: 0.5 mg/mL microsomes, NADPH, 45 minutes, 37° C., read-out: Half-life in liver microsomes (t1/2, minutes)
Description: as §1

[5] = Metabolic stability in liver microsomes, mouse; assay type: in vitro ADME, CD-1 mouse; settings: CD-1, liver microsomes, 0.5 mg/mL microsomes, NADPH, 45 minutes, 37° C., read-out: Half-life in liver microsomes (t1/2, minutes)
Description: as §1

[6] = Metabolic stability in liver microsomes, rat; assay type: in vitro ADME; settings: Sprague Dawley, 0.5 mg/mL microsomes, NADPH, 45 minutes, 37° C., read-out: Half-life in liver microsomes (t1/2, minutes)
Description: as §1

[7] = Metabolic stability in liver microsomes, dog; assay type: in vitro ADME; settings: Beagle, 0.5 mg/mL microsomes, NADPH, 45 minutes, 37° C., read-out: Half-life in liver microsomes (t1/2, minutes)
Description: as §1

[8] = Rat pharmacokinetics, single dose; assay type: in vivo, Wistar Han rats; settings: for clearance / half-life / Vd / AUC(0-t) / Cmax / bioavailability: rat, in vivo, Wistar Han rats; for clearance / half-life / Vd: IV dose 1 mg/kg; for Vd: read-out: Vss; for AUC(0-t) / Cmax / bioavailability: oral dose 3 mg/kg; for clearance in rats, comparison in words / half-life in rats, comparison in words: relative to comparator compound 13
Description: Pharmacokinetics for compounds 13, 1a, and 9b were determined using single dosage of Wistar Han rats using techniques that are well known in the art.

[9] = Metabolic stability in liver microsomes, human; assay type: in vitro ADME; settings: 0.5 mg/mL microsomes, NADPH, 45 minutes, 37° C., read-out: Half-life in liver microsomes (t1/2, minutes)
Description: as §1

Sequence of human DLK (Q12852 whole entry): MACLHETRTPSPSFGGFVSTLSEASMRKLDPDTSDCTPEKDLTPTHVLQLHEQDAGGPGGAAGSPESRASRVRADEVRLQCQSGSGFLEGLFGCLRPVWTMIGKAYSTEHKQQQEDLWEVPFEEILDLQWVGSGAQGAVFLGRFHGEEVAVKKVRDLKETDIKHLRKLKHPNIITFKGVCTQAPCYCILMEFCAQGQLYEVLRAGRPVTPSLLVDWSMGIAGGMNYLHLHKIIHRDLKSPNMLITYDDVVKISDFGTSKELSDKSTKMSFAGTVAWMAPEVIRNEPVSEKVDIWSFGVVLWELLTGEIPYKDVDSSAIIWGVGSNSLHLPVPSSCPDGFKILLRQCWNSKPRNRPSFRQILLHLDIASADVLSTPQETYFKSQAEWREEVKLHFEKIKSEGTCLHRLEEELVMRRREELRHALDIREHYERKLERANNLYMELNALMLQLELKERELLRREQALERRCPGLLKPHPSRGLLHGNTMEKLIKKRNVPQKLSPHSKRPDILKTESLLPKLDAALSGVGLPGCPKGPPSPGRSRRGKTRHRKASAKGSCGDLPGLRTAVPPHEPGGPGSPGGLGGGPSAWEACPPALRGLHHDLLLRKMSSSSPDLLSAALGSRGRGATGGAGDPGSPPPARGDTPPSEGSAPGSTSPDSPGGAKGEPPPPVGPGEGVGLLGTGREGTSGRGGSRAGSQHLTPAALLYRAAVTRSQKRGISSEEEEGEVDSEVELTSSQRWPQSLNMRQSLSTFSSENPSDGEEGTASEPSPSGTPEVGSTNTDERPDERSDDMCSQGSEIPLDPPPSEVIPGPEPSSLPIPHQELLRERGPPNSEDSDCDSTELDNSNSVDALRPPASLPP

With `Nc1ncc(-c2cn(C34CC(F)(C3)C4)c([C@@H](O)C(F)(F)F)n2)cc1OC(F)(F)F` (single isomer, unassigned) [Example 1a] the “microsomal stability, comparison in words” value [1] was “improvements to microsomal stability”, the Kp [2] was 1.77 and the unbound brain-to-plasma ratio (Kp,uu) [2] was 0.92. The clearance [2] was 4.3 mL/min/kg, the half-life [2] was 12.7 h and the Vd [2] was 4.5 L/kg. It also gave an AUC(0-t) [2] of 111 µM·h, a Cmax [2] of 6360 nM and a bioavailability [2] of 154%. For the same compound, the “clearance in mice, comparison in words” value [2] was “reduced clearance”, the “half-life in mice, comparison in words” value [2] was “longer half-life” and the Kd [3] was 2.2 nM. For the same compound, the half-life [4] was 182 min, the half-life [5] was 378 min and the half-life [6] was 154 min. For the same compound, the half-life [7] was 287 min, the clearance [8] was 5.9 mL/min/kg and the half-life [8] was 11.5 h. For the same compound, the Vd [8] was 4.9 L/kg, the AUC(0-t) [8] was 16.8 µM·h and the Cmax [8] was 1310 nM. For the same compound, the bioavailability [8] was 103%, the “clearance in rats, comparison in words” value [8] was “reduced clearance” and the “half-life in rats, comparison in words” value [8] was “longer half-life”. The half-life [9] was 558 min.
With `Nc1ncc(-c2cn(C34CC(N5CCC(F)(F)CC5)(C3)C4)c([C@H](O)C(F)(F)F)n2)cc1OC(F)(F)F` (single isomer, unassigned) [Example 9b] the “microsomal stability, comparison in words” value [1] was “improvements to microsomal stability”, the Kp [2] was 0.7 and the unbound brain-to-plasma ratio (Kp,uu) [2] was 0.31. For the same compound, the clearance [2] was 3.9 mL/min/kg, the half-life [2] was 15.9 h and the Vd [2] was 4.8 L/kg. The AUC(0-t) [2] was 39.6 µM·h, the Cmax [2] was 2310 nM and the bioavailability [2] was 70.5%. The “clearance in mice, comparison in words” value [2] was “reduced clearance”, the “half-life in mice, comparison in words” value [2] was “longer half-life” and the Kd [3] was 1 nM. For the same compound, the half-life [4] was 331 min, the half-life [5] was 240 min and the half-life [6] was 581 min. It also gave a half-life [7] of 240 min, a clearance [8] of 2.8 mL/min/kg and a half-life [8] of 22.7 h. For the same compound, the Vd [8] was 4.7 L/kg, the AUC(0-t) [8] was 19.2 µM·h and the Cmax [8] was 1050 nM. For the same compound, the bioavailability [8] was 95.9%, the “clearance in rats, comparison in words” value [8] was “reduced clearance” and the “half-life in rats, comparison in words” value [8] was “longer half-life”. For the same compound, the half-life [9] was 297 min.
